What was measured:
Gsα = assay: Content of G protein (Gsα) in C6-2B glioma membranes after antidepressant treatment, quantitative immunoblot; assay type: cell-based
Method: C6-2B cells (between passages 20 and 40) were grown in 175-cm^2 flasks in Dulbecco's modified Eagle medium, 4.5 g of glucose/L, 10% bovine serum, in a 10% CO2 atmosphere, at 37° C. for 3 days after splitting. […] Male Sprague-Dawley rats weighing 150-200 g were fed ad libitum and maintained in a 12-h light/dark cycle. […] 36:803-838, 1989]. […] Rat cerebral cortex membranes were prepared according to the method of Rasenick et al. [Nature, 294:560-562; 1981].
Rat cortex membrane, C6-2B cell membranes, or Triton extracts of each membrane preparation were subjected to SDS-PAGE followed by electrotransfer to polyvinylidene difluoride (PVDF) membrane. The PVDF membrane was incubated with a phosphate-buffered saline/Tween 20 Buffer (140 mM NaCl, […]. 0.1% Tween 20, pH 7.4) and 3% bovine serum albumin. The membrane was then incubated with polyclonal rabbit antisera against the various G protein subunits [RM (Gsα) or 116 (Gi1, Gi2, Gi3α)] at a 1:25,000 (RM) or 1:5,000 (116) dilution (see below for source of antibodies). […] Immunoreactivity was detected with an enhanced chemiluminescence (ECL) western blot detection system (Amersham) in accord with the manufacturer's instructions. The developed autoradiographs were analyzed by densitometry.
Purified recombinant GsαL (long form of Gsα; 1-10 ng/lane) was subjected to SDS-PAGE and transferred to PVDF membranes. The blots were incubated with antibody against Gsα (RM) and processed by ECL. Films were analyzed on a Molecular Dynamics densitometer, and the volume of each band was quantified and used to make a standard curve.
Experiments were conducted to determine whether Gsα is quantitatively altered by antidepressant therapy. For quantification of Gsα in C6-2B membrane, a standard curve was created using purified recombinant […]. Pure Gsα (1-20 ng/well) was subjected to SDS-PAGE and transferred to a PVDF membrane, Gsα was immunodetected by antisera against the as subunit of G protein.
To estimate the effect of antidepressant treatment on the amount of Gsα in C6-2B membranes, equal amounts (10 μg) of C6-2B glioma membrane proteins in control and chronically (3 days) antidepressant-treated groups were subjected to SDS-PAGE. Gsα was immunodetected by antisera against the αs subunit of G protein.

Giα = assay: Detergent extraction of Giα from C6-2B glioma membranes; assay type: cell-based; conditions: C6-2B cells, 10 μM, 3 days; FIG. 4
Method: Membrane proteins were extracted sequentially from C6-2B or rat synaptic membranes as described [Yan et al., J. Neurochem., 66:1489-1495; 1996]. These membranes were stirred on ice in HEPES (15 mM, pH 7.4) containing 1% Triton X-100 for 60 min followed by centrifugation at 100,000 g for 60 min at 4° C. The supernatant was reserved (Triton X-100 extract), and the resulting pellet was resuspended in Tris (15 mM, pH 7.4) containing 1.4% Triton X-114 and 150 mM NaCl. The solution was stirred for 60 min at 4° C. and centrifuged for 30 min at 100,000 g in the cold. The supernatant was saved (Triton X-114 extract). These supernatants and remaining pellet (remainder) were subjected to sodium dodecyl sulfate (SDS)-polyacrylamide gel electophoresis (PAGE) using 10% gels. […]
Rat cortex membrane, C6-2B cell membranes, or Triton extracts of each membrane preparation were subjected to SDS-PAGE followed by electrotransfer to polyvinylidene difluoride (PVDF) membrane. […] Immunoreactivity was detected with an enhanced chemiluminescence (ECL) western blot detection system (Amersham) in accord with the manufacturer's instructions. The developed autoradiographs were analyzed by densitometry.
Experiments were conducted (as described in Example 1) to ascertain the effect of antidepressant therapy on the mobility of Giα from C6-2B glioma cells. […] Immunoreactivity was detected with an ECL western blot detection system.

[1] = C6-2B membranes, 10 μM drug for 3 days, mean ± SEM of 4-5 experiments

Which results are given for CNCCC(Oc1ccc(C(F)(F)F)cc1)c1ccccc1 (centres unmarked) [Fluoxetine, fluoxetine]?
Quantity of G proteins in membrane, treated versus control (Gsα; C6-2B cells, 10 μM, 3 days, p>0.05): no significant differences; G protein amount, Total (Gsα; [1]): 12.49 ± 0.67 ng/10 ug of membrane protein; G protein amount, αsL (Gsα; [1]): 7.23 ± 0.56 ng/10 ug of membrane protein; G protein amount, αsS (Gsα; [1]): 5.65 ± 0.74 ng/10 ug of membrane protein; Migration of Giα to a less hydrophobic membrane fraction (Giα): did not migrate to a less hydrophobic membrane fraction

— patent USRE43712E1, “Methods for assaying for antidepressant therapy markers” (The Board of Trustees of the Uniersity of Illinois, priority 2000, dated 2012)
